# Target: T1, AbiEii (AbiEii-His6) (Streptococcus agalactiae, UniProt Q8DZ35)
# T1 construct: gene abiGII; full-length, C-terminal His6 tag kept, from pRLD56 in E. coli BL21 co-expressing AbiEi (pRLD69), Ni-NTA purified
# T1 sequence (Q8DZ35 1-281): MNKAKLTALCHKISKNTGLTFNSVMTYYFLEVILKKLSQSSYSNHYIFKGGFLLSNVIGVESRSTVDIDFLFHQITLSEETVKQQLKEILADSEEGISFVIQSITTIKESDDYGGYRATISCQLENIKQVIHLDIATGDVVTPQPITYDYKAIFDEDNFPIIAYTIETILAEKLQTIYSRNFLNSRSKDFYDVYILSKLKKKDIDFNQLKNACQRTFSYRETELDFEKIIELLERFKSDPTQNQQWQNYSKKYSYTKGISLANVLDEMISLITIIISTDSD
# Assay: native PAGE gel shift of [α-32P]-NTP
# Format: binding
# Conditions: labelled compound; 0.65 pmol; 10 mM Tris-HCl, […] MgCl2, 50 mM KCl, pH 8.3, 37 °C, 1 h
row,Compound,native PAGE gel shift of [α-32P]-NTP
1,Nc1ncnc2c1ncn2[C@@H]1O[C@H](COP(=O)(O)OP(=O)(O)OP(=O)(O)O)[C@@H](O)[C@H]1O [ATP],Limited binding to ATP was also observed
2,Nc1nc2c(ncn2[C@@H]2O[C@H](COP(=O)(O)OP(=O)(O)OP(=O)(O)O)[C@@H](O)[C@H]2O)c(=O)[nH]1 [GTP],"Increasing AbiEii-His6 concentrations led to retardation in GTP migration, demonstrating GTP binding"

# Source: PMC3985639, “A widespread bacteriophage abortive infection system functions through a Type IV toxin–antitoxin mechanism” (Nucleic Acids Research, 2014)
